According to EP2377876A1, “Use of proteins and peptides of the TGF-BETA superfamily for purification and therapeutic methods” (Wyeth LLC, priority 2006, dated 2011):
No end group written: not given here.

Assays:
BMP-12 = experiment: Binding of BMP-12 to peptide-coupled affinity resins in 96 well filter plate
Description: The coupled resins, plus an unconjugated resin for use as a control, were suspended in 16% ethanol, 150 mM NaCl, and 20 mM Tris buffer at pH 7.5 at a 25% v/v ratio (e.g., 25% ethanol, 75% Tris buffer). A Tecan liquid-handling robot was employed to aliquot 200 µL of each slurry into one of eight rows of a 96 well polystyrene filter plate (0.45 µm hydrophilic filters, Whatman catalog number 770-1806). Spinning at 1200 g for 3 min removed the liquid phase, leaving 50 µL of wet resin on the filters. The resins were then equilibrated with the loading buffers listed in Table 6 (K is a coefficient characterizing the strength of protein binding to a particular resin in a particular buffer). […] The resins were loaded by transferring 150 µL from the load plate to the filter plate and then incubating 20 min on a shaking platform to facilitate binding. The filter plate was spun down and the filtrate collected in a 96 well UV plate. The protein concentration in the filtrate, or flow-through, was calculated as (A280-A320)/1.3. The filter plate was then washed with 150 µL of 100 mM acetic acid, followed by 150 µL of 4M guanidine-HCl and 50 mM sodium acetate at pH 4.0. The protein concentration was measured in the new filtrate as described above. […] However, for peptides 750 and 751, the binding was strong in 25 mM MES at pH 6 but weak in 50 mM acetic acid with 0.1 M NaCl at pH 3.0, which can allow an efficient binding-elution process without the need for chaotrops or organic reagents. Flow-through and acetic acid elution samples from column 4 of the plate (loaded with MES pH 6) were analyzed on a gel (Figure 14).

BMP-3 = experiment: Purification of BMP-3 on immobilized finger 1 peptide column, comparison of ligands; format: binding; settings: compared with the BMP-2 mutant peptide
From the text: ([…] […]) was used to purify BMP-3 as in Example 1. […] Less of the propeptide fragment eluted than in Example 6.

[1] = 50 mM acetic acid with 0.1 M NaCl at pH 3.0

Substance | binding of BMP 12 by coupled resin (BMP-12; loading buffers 1-5) | binding of BMP 12 by coupled resin (BMP-12; 25 mM MES at pH 6) | binding of BMP 12 by coupled resin (BMP-12; [1]) | further results
Ac-RDLGWQDWIIAPEGYAAFYSDGEK [Peptide 748] | high affinity | – | – | –
Ac-ELGWDDWIIAPLDYEAYHSEGLK [Peptide 749] | high affinity | – | – | –
Ac-LYVDFSDVGWNDWIVAPPGYHAFYSHGEK [Peptide 747] | high affinity | – | – | –
KELGWDDWIIAPLDYEAYHCEGLC [BMP12 Fing1 WT] | – | – | – | effectiveness of immobilized ligand (BMP-3): less effective than the BMP-2 mutant
Ac-SDVGWNDWIVAPPGYHAFYSHGEK [Peptide 751] | – | strong | weak | –
Ac-SDVGWNDWIVAPPGYHAFYCHGEK [Peptide 750] | – | strong | weak | –
